Molecular target: T1, rubredoxin reductase RubB (also RubR, RdxR) (Pseudomonas aeruginosa, UniProt Q9HTK9)
T1 construct: gene alkT; gene 1,155 bp
Assay: stopped-flow FAD fluorescence (excitation […] nm)
Assay type: biochemical
Conditions: pH 8.0, 0.1 M NaCl, 25 °C; reduction of bound FAD; no RubA2

T1 sequence (Q9HTK9 whole entry): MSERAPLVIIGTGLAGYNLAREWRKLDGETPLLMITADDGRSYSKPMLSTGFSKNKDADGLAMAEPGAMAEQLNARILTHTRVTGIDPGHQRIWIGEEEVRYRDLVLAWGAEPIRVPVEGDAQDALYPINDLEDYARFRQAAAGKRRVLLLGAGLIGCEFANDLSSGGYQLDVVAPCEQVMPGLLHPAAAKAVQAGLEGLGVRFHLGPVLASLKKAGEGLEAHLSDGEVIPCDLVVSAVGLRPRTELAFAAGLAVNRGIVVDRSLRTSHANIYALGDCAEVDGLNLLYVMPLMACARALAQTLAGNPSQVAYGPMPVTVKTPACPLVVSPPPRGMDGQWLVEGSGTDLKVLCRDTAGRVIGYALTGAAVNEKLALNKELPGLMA

Structure (SMILES): NC(=O)C1=CN([C@@H]2O[C@H](COP(=O)(O)OP(=O)(O)OC[C@H]3O[C@@H](n4cnc5c(N)ncnc54)[C@H](O)[C@@H]3O)[C@@H](O)[C@H]2O)C=CC1 [NADH]
- stopped-flow FAD fluorescence (excitation 436 nm): after the addition of NADH the FAD fluorophore was reduced within milliseconds to FADH2

Source: paper PMC12431658, “Versatile roles of rubredoxin reductase of Pseudomonas aeruginosa TBCF10839 in virulence and stress protection” (PLOS Pathogens, 2025)
